Assays:
[1] = tested on: SNI mice; assay: attentional rule-shifting task after SNI; type: in vivo, mouse; details: SNI mice vs SNI+vehicle, 10 mg/kg p.o. 7 days
Protocol: Surgery. Spared nerve injury (SNI) was performed by the ligation and cutting of the tibial and peroneal branches of the left sciatic nerve trifurcation, leaving the sural branch intact as previously described (Decosterd and Woolf, 2000). Sham surgeries were performed the same way but without cutting the nerve. Mice were allowed to recover for 2 weeks following surgery.
Attentional rule-shifting. Habituation: Mice were handled and gradually food restricted to 90% of their baseline weight over 3 weeks. Habituation took place over 3 days in which food rewards (Cheerio bits) were placed along each arm of a plusmaze. Mice were allowed to freely explore the maze and consume the food for 4 trials per day with a maximum time of 30 minutes per trial. When the mouse had consumed all of the food, the trial ended, and the mouse was returned to a holding cage while the maze was rebaited. The number of food pellets in each arm decreased from 4 to 2 to 1 on each consecutive day of habituation. Turn bias: On the fourth day the inventors assessed the animals' turn bias. Therefore, the plus maze was converted into a T-maze by blocking off one of the arms. Mice were placed in the stem arm (starting arm) and allowed to turn left or right to obtain a food pellet. After the mouse consumed the reward, it was returned to the stem arm and allowed to make another choice. […]

[2] = tested on: cultured mouse DRG neurons; assay: Western blot of cultured primary DRG neurons treated with eFT508; type: cell-based
[3] = tested on: mice; assay: rotarod; type: in vivo, mouse; details: 10 mg/kg i.p., 1 hour
Protocol: Rotarod. Motor function was assessed using a rotarod (IITC Life Science rotarod series 8) with ramp speed (20 rpm acceleration) at a starting speed of […] for a maximum of 120s. The time until each animal fell was recorded for each trial. Naïve mice were trained for 1 trial, and then 2 baseline trials were conducted and scores for both trials were averaged.

[4] = tested on: mice; assay: open field; type: in vivo, mouse; details: 10 mg/kg i.p., 1 hour; vehicle had the same effect
Protocol: Open field. […] Movement in the maze was video recorded for 10 minutes via ceiling-mounted cameras and tracked using a custom script in MATLAB-2015b. The script outputs total distance traveled and path tracking.

[5] = tested on: DRG neurons; assay: whole-cell patch clamp of cultured DRG neurons treated with IL-6 and eFT508; type: cell-based, mouse
Protocol: Phosphorylation of the 5′ cap-binding protein eIF4E by MAPK interacting kinases MNK1/2 is important for nociceptor sensitization and the development of chronic pain. IL-6 induced DRG nociceptor excitability is attenuated in mice lacking eIF4E phosphorylation, in MNK1/2^−/− mice and by the nonselective MNK1/2 inhibitor cercosporamide. […] Dorsal root ganglion (DRG) neurons were cultured from male and female ICR mice, 4-7 weeks old. […] Whole-cell patch clamp recordings were done on small diameter neurons (20-30 pF) to measure membrane excitability in response to ramp depolarization. […] These findings are consistent with a model wherein MNK-eIF4E signaling controls the translation of signaling factors that regulate T-type VGCCs in response to IL-6 treatment.

[6] = tested on: models which harbor activating MyD88 mutations; details: in vivo, multiple models; cited from earlier work

## Cc1cc(Nc2cc(N)ncn2)c(=O)n2c1C(=O)NC21CCCCC1 [eFT508, Tomivosertib]
[1]
  never-reinforced (NRE) and regressive (REG) type errors: significantly fewer
[2]; 1 μM for 1 hr
  RagA protein level: decrease
[2]; 0.1 and 1 μM, 1 hr
  level of eIF4E phosphorylation: significantly reduced
  other signaling pathways: without affecting other signaling pathways
[2]; cultured DRGs neurons
  reduction of eIF4E phosphorylation: 90%
[3]
  rotarod performance vs naïve mice: no significant difference
[4]
  movement speed in the open field vs naïve mice: moved significantly slower
[5]; IL-6, eFT508 pretreatment
  latency to the first action potential in the ramp protocol: rescued
[5]; one hr IL-6, eFT508 pretreatment followed by IL-6
  action potential firing in response to ramp depolarization: blocked
[6]
  anti-tumor activity: significant anti-tumor activity

Reference: patent US20220226321A1, “INHIBITOR OF MNK FOR THE TREATMENT OF NEUROPATHIC PAIN” (Board of Regents, The University of Texas System, priority 2019, published 2022)
